# According to publication PMC12040169 (PLOS Biology, 2025):
# Assay: in vitro
# Conditions: human, hela cells, % viability
row,Compound,"viability at 28.5 h, 10 µM"
1,OCC[C@H]1CN2CCCC2CN1Cc1cccn1-c1ccccc1F (some centres unmarked) [CBK282977],93%
2,Cc1cc(C)n(CC(O)CN(Cc2ccco2)Cc2cccs2)n1 (centres unmarked) [CBK282979],100%
3,Cc1cc2ccccc2n1CCCNC(=O)c1ccc(=O)n(C)c1 [CBK282982],104%
4,COc1ccc(CN2CCCC(c3nc(C)n4ccccc34)C2)cc1 (centres unmarked) [CBK282984],94.6%
5,OCC[C@H]1CN2CCCC2CN1Cc1cccn1-c1cccc(F)c1 (some centres unmarked) [CBK282985],86.1%
6,Cn1cncc1CN(CCc1ccccc1)Cc1ccncc1 [CBK282992],87.4%
7,Cc1cc(C[C@@H]2COC[C@H]2NCc2c(F)cccc2Cl)on1 [CBK282994],83.4%
8,OC12CCCCC1CN(Cc1nc3ccccc3[nH]1)CC2 (centres unmarked) [CBK282995],93.9%
9,CC(=O)N1CCC(c2nc(Cc3cccs3)no2)C1 (centres unmarked) [CBK282998],108%
10,Cc1cc(C[C@@H]2COC[C@H]2NCc2cccs2)on1 [CBK282999],95.8%
11,CC(=O)NCC1CCC(C(NC(=O)C2CC2)c2ccccn2)CC1 (centres unmarked) [CBK283000],87.5%
12,O[C@@]1(c2ccccn2)CC[C@H]2CN(Cc3ccccc3F)C[C@H]21 [CBK283001],94.3%
13,CC(=O)OCc1ccc(CN2CCCCCC2c2cc(C)on2)o1 (centres unmarked) [CBK283004],88.2%
14,COc1cccc(CN[C@@H]2CCC[C@H]2Cc2cc(C)no2)c1 [CBK283006],109%
15,Cc1cc(CN(C)Cc2cnn(Cc3ccccc3)c2C)n[nH]1 [CBK283017],94.6%
16,OCCN(Cc1cccnc1)Cc1cccn1-c1cccc(F)c1 [CBK283018],81.5%
17,CN(C)CCN(Cc1nc2ccccc2[nH]1)Cc1cccs1 [CBK283020],85.1%
18,CC(C)N1CCC(N(C)Cc2nc3ccccc3[nH]2)CC1 [CBK283021],105%
19,Cn1cncc1CN1C[C@@H]2CCCN2C[C@@H]1Cc1ccccc1 [CBK283027],91.9%
20,C=CCn1ncc(CN2CCC3(O)CCCCC3C2)c1C (centres unmarked) [CBK283029],100%
21,Fc1ccccc1CN(CCCn1ccnc1)CC1CCOC1 (centres unmarked) [CBK283031],104%
22,Cc1ccsc1CN(Cc1cncn1C)CC(C)O (centres unmarked) [CBK283033],85.7%
23,CCCC(=O)N1CCC(c2nc(Cc3cccs3)no2)C1 (centres unmarked) [CBK283034],88%
24,CCn1cc(CN(CCN(C)C)Cc2cccs2)c(C)n1 [CBK283037],101%

row,Compound,"viability at 28.5 h, 10 µM"
1,CCC1c2ccc(C)n2CCN1Cc1cnc(C)n1C (centres unmarked) [CBK283038],105%
2,Cn1cncc1CN(CCCn1ccnc1)Cc1ccccc1Cl [CBK283041],84.8%
3,OCCN(Cc1cccnc1)Cc1cccn1-c1ccc(F)cc1F [CBK283042],90.4%
4,O=C(NCCO)C1(Cc2ccc(-c3ccccc3)cc2)CCNC1 (centres unmarked) [CBK283043],83.9%
5,Cn1ccc(C2CCCCCN2C(=O)Cc2cccs2)n1 (centres unmarked) [CBK283047],86.5%
6,CC(C)c1cc(C(=O)N2CCCCCC2c2ccn(C)n2)no1 (centres unmarked) [CBK283048],85.3%
7,CCC(=O)N1CCCc2cc(C(O)CN3CCCC(C)C3)ccc21 (centres unmarked) [CBK283049],89.2%
8,CC(C)c1cc(C(=O)N2C[C@H](C)N(Cc3ccco3)C[C@@H]2C)on1 [CBK283053],90.9%
9,CC(C)[C@@H]1C[C@H](C(F)(F)F)n2nc(C3CCCNC3)cc2N1 (some centres unmarked) [CBK283056],98.6%
10,O=C(c1ccccc1)N1CCCC(c2nnc(-c3cccs3)o2)C1 (centres unmarked) [CBK283059],103%
11,CCC(=O)N1CCCC(c2nnc(-c3cccs3)o2)C1 (centres unmarked) [CBK283060],92%
12,CCc1cc(CNS(=O)(=O)c2cc(C)ccc2F)on1 [CBK283064],108%
13,CC(C)c1cc(C(=O)NC2CCOc3ccccc32)no1 (centres unmarked) [CBK283065],93.9%
14,Cc1n[nH]c(C)c1CNC(=O)c1cccc2c(C)c(C)[nH]c12 [CBK283068],88.9%
15,Cc1cc(S(=O)(=O)Nc2ccnn2C(C)C)ccc1F [CBK283069],96.9%
16,Cc1nc(C)c(C(=O)NCCN2CC(C)CC(C)C2)s1 (centres unmarked) [CBK283071],95.1%
17,COCc1ccc(C(=O)N2CCC(c3cc4cnccc4[nH]3)CC2)o1 [CBK283073],90.9%
18,Cc1c(C(=O)NC(C)c2cc3ccccc3o2)cnn1C (centres unmarked) [CBK283074],99.3%
19,Cc1ccc2oc(CN3CCn4cnnc4C3)c(C)c2c1 [CBK283075],109%
20,Cc1nn(C)c(C)c1C(C)NC(=O)C1CC2C=CC1C21CC1 (centres unmarked) [CBK283076],81.5%
21,Cc1cc2cc(NC(=O)CCc3c(C)n[nH]c3C)ccc2o1 [CBK283077],84.2%
22,Cc1nn(C)c(C)c1CN(C)C(=O)CCC1CCCO1 (centres unmarked) [CBK283078],99.7%
23,Cc1cc(C)n(CC(=O)Nc2ccccc2-n2ccnc2)n1 [CBK283079],101%
24,CN1CCC[C@@H]2[C@H]1[C@@H](c1ccc(F)cc1)CN2C(=O)c1ccccn1 [CBK283081],103%

row,Compound,"viability at 28.5 h, 10 µM"
1,CC(=O)N1CCC(O)(Cn2c(C3CC3)cc3cccnc32)CC1 [CBK283082],111%
2,CN(C)CCN(Cc1ccncc1)Cc1ccc(F)cc1F [CBK283094],98.2%
3,CN(C)CCN(Cc1ccncc1)Cc1cc(F)ccc1F [CBK283095],88%
4,CN(C)CCN(Cc1ccncc1)Cc1cc(F)cc(F)c1 [CBK283096],94.9%
5,Fc1ccccc1CN(CCCn1ccnc1)Cc1cccnc1 [CBK283099],90.4%
6,Cc1ccc(CN(CCCn2ccnc2)Cc2ccncc2)o1 [CBK283101],108%
7,Cc1ccc(CN(CCCn2ccnc2)Cc2ccccn2)o1 [CBK283102],106%
8,Cc1ccc(CN(CCCn2ccnc2)Cc2nc3ccccc3[nH]2)o1 [CBK283103],90.9%
9,CCS(=O)(=O)N1CC2CCCC(O)(c3cccc(F)c3)C2C1 (centres unmarked) [CBK283108],99.3%
10,Cc1ccc(CN(CCCn2ccnc2)Cc2cnn(C)c2)s1 [CBK283113],97.3%
11,CCNCc1cc2c(C)nn(-c3ccc(F)cc3)c2[nH]c1=O [CBK283118],107%
12,Cc1nn(-c2ccc(F)cc2)c2[nH]c(=O)c(CNC(C)C)cc12 [CBK283119],95.7%
13,Cc1nn(-c2ccc(F)cc2)c2[nH]c(=O)c(CNC(C)(C)C)cc12 [CBK283120],102%
14,Cc1nn(-c2ccc(F)cc2)c2[nH]c(=O)c(CNC3CC3)cc12 [CBK283121],98.1%
15,CCC(=O)N1c2ccc(C(O)CN3CCSCC3)cc2CC1C (centres unmarked) [CBK283122],91.5%
16,COc1ccccc1CN(CCCn1ccnc1)Cc1ccoc1 [CBK283123],97.2%
17,Cc1ccc(CN[C@@H]2CCC(=O)N[C@H]2c2cc(F)cc(F)c2)o1 [CBK283128],97.9%
18,O=C1CC[C@@H](NCc2cccs2)[C@H](c2cc(F)cc(F)c2)N1 [CBK283129],95.5%
19,O=C1CC[C@@H](NCc2cccnc2)[C@H](c2cc(F)cc(F)c2)N1 [CBK283130],90.9%
20,O=C1CC[C@@H](NCc2ccncc2)[C@H](c2cc(F)cc(F)c2)N1 [CBK283131],92.9%
21,Cc1nn(C(C)CC(=O)NC2CCCOC2)c(C)c1C (centres unmarked) [CBK283133],112%
22,Cc1ccc(CN(CCCn2ccnc2)Cc2ccccc2O)s1 [CBK283135],103%
23,Cc1ccc(CN(CCCn2ccnc2)Cc2nccn2C)s1 [CBK283137],91.8%
24,Cc1ccc(CN(CCCn2ccnc2)Cc2[nH]cnc2C)s1 [CBK283138],90.3%

row,Compound,"viability at 28.5 h, 10 µM"
1,O=C(Nc1cccc(N2CCCC2)c1)c1cc(C2CC2)on1 [CBK283139],87.7%
2,Cc1n[nH]c(C)c1CNC(=O)c1cc2ccc(F)cc2[nH]1 [CBK283147],89.4%
3,OC1(c2cccnc2F)CCN(Cc2c(F)cccc2Cl)CC1 [CBK283148],106%
4,OC1(c2cccnc2F)CCN(Cc2c(F)cccc2F)CC1 [CBK283149],107%
5,CCNC(=O)c1ccc(-n2cccn2)c(C#Cc2cccnc2)c1 [CBK283150],105%
6,Cc1cc2ccccc2n1CCC(=O)NC1CCCOC1 (centres unmarked) [CBK283152],91.1%
7,CC1CCc2n[nH]c(C(=O)NCCCc3ccco3)c2C1 (centres unmarked) [CBK283153],88.6%
8,O=C(NCCCC1CCOC1)c1[nH]nc2c1CCCCC2 (centres unmarked) [CBK283154],88.7%
9,O=C(NCCCc1ccccn1)C1(c2ccccc2F)CC1 [CBK283155],93.6%
10,Cc1n[nH]c(C)c1CNC(=O)C1(c2ccccc2F)CC1 [CBK283156],96.4%
11,O=C(NCCN1CCc2ccccc21)C1CC2C=CC1O2 (centres unmarked) [CBK283158],96.2%
12,Cc1cc(C)n(CC(O)CN(Cc2ccco2)CC2CC=CCC2)n1 (centres unmarked) [CBK283159],95.6%
13,CCCc1cc(C(=O)N(C)CCOc2ccccc2)[nH]n1 [CBK283162],91.7%
14,O=C(NCCN1CCC(O)(c2ccc(F)cc2)CC1)c1cccs1 [CBK283163],91.5%
15,O=C(NCCN1CCC(O)(c2ccc(F)cc2)CC1)C1CC1 [CBK283164],97.1%
16,O=C(NCCN1CCC(O)(c2ccc(F)cc2)CC1)c1ccco1 [CBK283166],99.3%
17,CC1CC1C(=O)NCCN1CCC(O)(c2ccc(F)cc2)CC1 (centres unmarked) [CBK283168],96.7%
18,CCN1CCCC1CN(Cc1ccncc1)Cc1ccoc1 (centres unmarked) [CBK283171],91%
19,Cc1[nH]c2ccc(F)cc2c1-c1cn2c3c(nnc2n1)CCCC3 [CBK283172],92.3%
20,Cc1ccc(CN(CCCN(C)C)Cc2cccc(O)c2)o1 [CBK283173],108%
21,Cc1ccc(CN(Cc2c[nH]cn2)C2CC(C)(C)NC(C)(C)C2)o1 [CBK283175],91%
22,Cn1ccnc1CN(Cc1ccccc1)C1CC(C)(C)NC(C)(C)C1 [CBK283177],93.2%
23,Cc1nc[nH]c1CN(Cc1ccccc1)C1CC(C)(C)NC(C)(C)C1 [CBK283178],92%
